Measured values reported in patent US20150240295A1, “REACTIVE, LIPOPHILIC NUCLEOSIDE BUILDING BLOCKS FOR THE SYNTHESIS OF HYDROPHOBIC NUCLEIC ACIDS” (IONOVATION GMBH, priority 2012, published 2015).

Legend:
OVCAR-5 = test: Oncological test, cell growth against OVCAR-5; assay type: cell-based, human; settings: FIGS. 10 and 11
From the text: (§1) FIGS. 10 to 17 show the activity of compounds ESP—2.2, ESP—2.5 and ESP—31 according to the invention as well as the comparative examples ESP—2 and ESP—3 (Table 4) in relation to the concentration employed against various different cancer cells. […] The x-axis depicts the molar concentration of the respective compound on a logarithmical scale.

IGR-OV1 = test: Oncological test, cell growth against IGR-OV1; assay type: cell-based, human; settings: FIGS. 12 and 13
From the text: as §1

HCT-15 cells = test: Oncological test, cell growth against HCT-15; assay type: cell-based, human; settings: for cell growth (inhibition / cytotoxic effect): FIGS. 14 and 15
From the text: as §1

786-0 cells = test: Oncological test, cell growth against 786-0; assay type: cell-based; settings: FIGS. 16 and 17
From the text: as §1

various cancer cells = test: Oncological tests, summary of FIGS. 10 to 17; assay type: cell-based; settings: ovarian, colon and kidney cancer cells
From the text: as §1

melting point [°C]	SMILES	cell growth (inhibition / cytotoxic effect) (OVCAR-5)	cell growth (inhibition / cytotoxic effect) (IGR-OV1)	cell growth (inhibition / cytotoxic effect) (HCT-15 cells)	cell growth (inhibition / cytotoxic effect) (786-0 cells)	further results
68	COc1ccc(C(OC[C@H]2O[C@@H](n3cnc4c(=O)n(C/C=C(\C)CC/C=C(\C)CCC=C(C)C)cnc43)C[C@@H]2O)(c2ccccc2)c2ccc(OC)cc2)cc1 [Compound 4b, 9-((2R,4S,5R)-5-((Bis(4-methoxyphenyl)(phenyl)methoxy)-methyl)-4-hydroxytetrahydrofuran-2-yl)-1-((2E,6E)-3,7,11-trimethyldodeca-2,6,10-trienyl)-1H-purin-6(9H)-on]	–	–	–	–	–
74	COc1ccc(C(OC[C@H]2O[C@@H](n3cnc4c(=O)n(C/C=C(\C)CCC=C(C)C)cnc43)C[C@@H]2O)(c2ccccc2)c2ccc(OC)cc2)cc1 [Compound 4a, 9-((2R,4S,5R)-5-((Bis(4-methoxyphenyl)(phenyl)methoxy)-methyl)-4-hydroxytetrahydrofuran-2-yl)-1-((E)-3,7-di-methylocta-2,6-dienyl)-1H-purin-6(9H)-one]	–	–	–	–	–
90.1	CCCCCCCCCCCCCC1(CCCCCCCCCCCCC)O[C@@H]2[C@H](O1)[C@@H](CO)O[C@H]2n1ccc(=O)[nH]c1=O [Compound 25c, 1-((3aR,4R,6R,6aR)-6-(hydroxymethyl)-2,2-ditridecyltetrahydrofuro[3,4-d][1,3]dioxol-4-yl)pyrimidin-2,4(1H,3H)-dione]	–	–	–	–	–
–	O=c1cnn([C@@H]2O[C@H](CO)[C@@H](O)[C@H]2O)c(=O)[nH]1 [ESP—2, 6-azauridine, reference compound]	no activity	slight inhibition	slight inhibition of the growth of the cells	–	–
–	O=c1ccn([C@@H]2O[C@H](CO)[C@@H](O)[C@H]2O)c(=O)[nH]1 [ESP—3, uridine, reference compound]	no activity	did not even cause a growth inhibition	–	did not show any activity at all	–
–	CCOC(=O)CC[C@]1(C)OC2[C@@H](CO)O[C@@H](n3ncc(=O)n(C/C=C(\C)CCC=C(C)CCC=C(C)C)c3=O)[C@H]2O1 (stereo partly drawn) [ESP—2.5]	high cytotoxicity	improved inhibition effect	increased activity	high cytotoxic effect	death of the cells (HCT-15 cells; high dosage): over 50%; activity / cytotoxicity against various cancer cells (various cancer cells): particular high cytotoxicity
89.7	CCCCCCCCCCCCCCCCCC1(CCCCCCCCCCCCCCCCC)OC2C(CO)OC(n3ccc(=O)[nH]c3=O)C2O1 (stereo not drawn) [Compound 25e, 1-(2,2-Diheptadecyl-6-hydroxymethyl-tetrahydro-furo[3,4-d][1,3]dioxol-4-yl)-1H-pyrimidin-2,4-dione]	–	–	–	–	–
–	CCCCCCCCCC1(CCCCCCCCC)OC2[C@@H](CO)O[C@@H](n3ccc(=O)[nH]c3=O)[C@H]2O1 (stereo partly drawn) [ESP—31]	cytotoxicity	vast improvement with respect to the cytotoxic activity	high cytotoxic activity	cytotoxic effect	–
93	CCCCCCCCCCCCCCCC1(CCCCCCCCCCCCCCC)OC2C(CO)OC(n3ccc(=O)[nH]c3=O)C2O1 (stereo not drawn) [Compound 25d, 1-(6-Hydroxymethyl-2,2-dipentadecyl-tetrahydro-furo[3,4-d][1,3]dioxol-4-yl)-1H-pyrimidin-2,4-dione]	–	–	–	–	–
–	CCOC(=O)CC[C@@]1(C)OC2C(O1)[C@@H](COC(c1ccccc1)(c1ccccc1)c1ccc(OC)cc1)O[C@H]2n1ncc(=O)[nH]c1=O (stereo partly drawn) [ESP—2.2]	inhibition of cell growth	activity of the compound could be increased	increased activity	–	–
